Data from patent publication US20070287666A1, “Modulator of gamma-secretase” (priority 2006, published 2007).

Key:
ε-secretase = assay: Cadherin processing assay; assay type: biochemical; settings: in words
Method: Notch and cadherin cleavage assays were performed as described previously (27, 29).
Cadherin processing assay: Assays were performed as previously described (29). Briefly, cells were resuspended in 0.5 ml/35-mm dish of hypotonic buffer (10 mM MOPS, pH 7.0, 10 mM KCl) and homogenized on ice. A post-nuclear supernatant was prepared by centrifugation at 1000×g for 15 minutes at 4° C. Crude membranes were isolated from the post-nuclear supernatant by centrifugation at 16,000×g for 40 minutes at 4° C. The membranes were then resuspended in 25 μl of assay buffer (150 mM sodium citrate, pH 6.4, 1× Complete protease inhibitor cocktail, Roche), and incubated at 37° C. for 4 hours in the presence or absence of γ-secretase inhibitor (L-685,458, 1 μM). Samples were then analyzed by immunoblotting using C32 anti-N-cadherin and C36 anti-E-cadherin antibodies (BD Transduction Laboratories).

TMP21 = assay: Western blotting of target protein expression after siRNA knockdown; assay type: cell-based, human; settings: whole cells; in words
Method: siRNA-based knockdowns of target proteins were performed as described, in HEK-293 or blastocyst-derived cells (30). The oligonucleotide sequences are available in Supplementary Information.
siRNA-based knockdowns of target proteins were carried out as described (30). […] As negative controls, we used a mixture of four pooled scrambled siRNAs and mock transfections without siRNA. The expression level of target proteins was monitored by Western blotting with polyclonal anti-TMP21 or anti-p24a antibodies. Each of the individual oligonucleotide pairs where independently shown to suppress the relevant target protein (FIG. 8).

γ-secretase [1] = assay: Aβ assay (ELISA, immunoprecipitation-western blotting) of conditioned medium from whole cells; assay type: cell-based, human; settings: whole cells or cell-free γ-secretase assays; in words
Method: Aβ40 and Aβ42 levels were measured by ELISA and immunoprecipitation-western blotting as described previously, with the use of 12-24-h-conditioned medium collected from native HEK-293 cells or from HEK-293 cells stably overexpressing APP (APPswedish or APPwt) (3,24). They were resuspended in Assay Buffer (10 mM KOAc, 1.5 mM MgCl2, protease inhibitors (Roche), 75 mM sodium citrate, pH 6.4) and incubated at 0° C. or 37° C. for 2 or 4 hours (24). CHAPSO-solubilized membrane fractions from above cells were subjected to cell free γ-secretase assay as described below without addition of the C100-Flag substrate. Following adjustment to RIPA buffer, Aβ were captured by immmunoprecipitation with 6E10 antibody (Signet) and immunoblotted as described previously (24). ε-stubs were detected by Western blotting with anti-APP-CT antibody (Sigma).

γ-secretase [2] = target: T1, γ-secretase (Homo sapiens, UniProt P49768); assay: γ-secretase reconstituted in yeast, APPC1-55/Gal4 lacZ reporter assay; assay type: cell-based, S. cerevisiae; design: expressed in transfected cells; host or cells: S. cerevisiae (strains PMY1 and DEY1); settings: co-expression with PS1, NCT, APH-1, PEN-2; wt or V717I APP reporter; in words
Source text: Core γ-secretase enzyme activity of the mammalian CNS was reconstituted in S. cerevisiae by co-expression of human presenilin 1 (PS1), nicastrin (NCT), APH-1 and PEN-2 in accordance with the method described by Edbauer (12), with activity measured via endoproteolytic release of a Gal4 transcriptional activator from an APPC1-55 juxtamembrane region and trans activation of a β-galactosidase reporter gene. While a starting configuration performed slightly above the baseline of cells lacking γ-secretase subunits, non-fermentable carbon sources favoring oxidative metabolism increased output up to 100-fold and allowed profiling of the system. As in mammalian cells, activity was greater with wt PS1 than wt PS2, sensitive to missense mutations of APP substrate near the Aβ42 site, and was modulated by the membrane protein TMP21.
Besides the production of Aβ-related peptide fragments identified by mass spectroscopy, enzyme activity was measured via a transcriptional reporter assay wherein endoproteolysis of a membrane-tethered APPC1-55/Gal4 fusion protein results in the release of a Gal4 transcriptional activator capable of driving a reporter gene (lacZ) with a colorimetric output. Effect of TMP21, Erv25p and Emp24p on reporter activity and PS1 processing

γ-secretase [3] = target: T1, γ-secretase; assay: Cell-free γ-secretase assay with immunopurified PS1 complexes and C100-Flag substrate; assay type: biochemical; design: PS1 complex was isolated by immunoprecipitation from CHAPSO extracted membranes; endogenous in cells; host or cells: HEK-293 (also SHSY-5Y) CHAPSO-solubilized membranes, anti-PS1 (A4) immunoprecipitate; settings: exogenous protein added to immunopurified TMP21-deficient PS1 complexes; in words
Method: Cell-free γ-secretase assays with endogenous APP were performed on microsome membranes from HEK-293 cells stably over expressing APPswedish with or without TMP21 RNAi treatments as described previously (24). ε-stubs were detected by western blotting with anti-APP-CT antibody (Sigma). Cell-free γ-secretase assay was performed as described (7, 13), with exogenous APP-C100 as the substrate was performed with recombinant APP-C100 peptides, wherein PS1 complex was isolated by immunoprecipitation from CHAPSO extracted membranes and combined with the recombinant C100 substrate and the generation of Aβ is determined by ELISA and AICD production is monitored by western blotting. More particularly, the peptides were generated from a prokaryotic expression vector encoding the C-terminal 100 amino acids (596-695) of human APP (695-residue isoform) followed by Flag and His6 sequences (C100-Flag-His6). This was generated by PCR and cloning into pQE60 (Qiagen). […] The generated Aβ was analyzed by immunoblotting or ELISA (Biosource).
Solubilized γ-secretase was prepared as described (7,13). […] Following addition of the C100-Flag substrate (˜0.5 μM) to 50 μl of the solubilized γ-secretase preparation the reaction mixture was incubated for 6 hrs at 37° C. and Aβ products detected by ELISA and Western blotting. […]

With `CC(C)C[C@H](NC(=O)[C@H](Cc1ccccc1)C[C@@H](O)[C@H](Cc1ccccc1)NC(=O)OC(C)(C)C)C(=O)N[C@@H](Cc1ccccc1)C(N)=O` [L685,458] the “ε-cleavage of E-cadherin or N-cadherin substrates (CAD/CTF1) to CAD/CTF2” value (ε-secretase) was “specifically inhibited”.

In the case of “p24a siRNA: p24a siRNA oligos (SEQ ID NO:12, 13) and p24a pooled oligos, Dharmacon (chain 1 AACCGGATGTCCACCATGACT; chain 2 ACAGAGCCATCAACGACAA; bought from Dharmacon, further chemistry not given here)”, the “total cellular TMP21 levels / expression” value (TMP21) is reported as “decrease” and the “effect on Aβ production” value (γ-secretase [1]) is reported as “no effect”.

B1: TMP21: 219-amino-acid type 1 transmembrane protein, member of the p24 cargo-protein family (accession number Q9D1D4); expressed from cDNA (protein, UniProt Q9D1D4 32-219, looked up)
Transmembrane emp24 …: ISFHLPVNSRKCLREEIHKDLLVTGAYEITDQSGGAGGLRTHLKITDSAGHILYAKEDATKGKFAFTTEDYDMFEVCFESKGTGRIPDQLVILDMKHGVEAKNYEEIAKVEKLKPLEVELRRLEDLSESIVNDFAYMKKREEEMRDTNESTNTRVLYFSIFSMFCLIGLATWQVFYLRRFFKAKKLIE
For B1, the lacZ reporter activity (γ-secretase [2]) was “markedly reduced” and the “effect on Aβ production” value (γ-secretase [1]) was “no discernible effect”.

B2: TMP21-Flag: TMP21 tagged at the C terminus with the Flag epitope, immunopurified from HEK-293 cells (protein)
chain: ISFHLPINSRKCLREEIHKDLLVTGAYEISDQSGGAGGLRSHLKITDSAGHILYSKEDATKGKFAFTTEDYDMFEVCFESKGTGRIPDQLVILDMKHGVEAKNYEEIAKVEKLKPLEVELRRLEDLSESIVNDFAYMKKREEEMRDTNESTNTRVLYFSIFSMFCLIGLATWQVFYLRRFFKAKKLIE
modifications: left off: small tags and cut ends
In the case of B2, the “Aβ production after complementation of TMP21-deficient PS1 complexes” value (γ-secretase [3]) is reported as “reverted to normal”.
